Test results published in US12091411B2, “IRAK degraders and uses thereof” (Kymera Therapeutics, Inc., priority 2022, dated 2024).
Where two headings read alike, the source gives them in different places.

Target: T1, IRAK4 (Homo sapiens, UniProt Q9NWZ3)
T1 construct: Degradation of IRAK4 in OCI-LY10 was quantitatively measured using Meso Scale Discovery technology; endogenous in cells; host or cells: OCI-LY10
T1 sequence (Q9NWZ3 1-460): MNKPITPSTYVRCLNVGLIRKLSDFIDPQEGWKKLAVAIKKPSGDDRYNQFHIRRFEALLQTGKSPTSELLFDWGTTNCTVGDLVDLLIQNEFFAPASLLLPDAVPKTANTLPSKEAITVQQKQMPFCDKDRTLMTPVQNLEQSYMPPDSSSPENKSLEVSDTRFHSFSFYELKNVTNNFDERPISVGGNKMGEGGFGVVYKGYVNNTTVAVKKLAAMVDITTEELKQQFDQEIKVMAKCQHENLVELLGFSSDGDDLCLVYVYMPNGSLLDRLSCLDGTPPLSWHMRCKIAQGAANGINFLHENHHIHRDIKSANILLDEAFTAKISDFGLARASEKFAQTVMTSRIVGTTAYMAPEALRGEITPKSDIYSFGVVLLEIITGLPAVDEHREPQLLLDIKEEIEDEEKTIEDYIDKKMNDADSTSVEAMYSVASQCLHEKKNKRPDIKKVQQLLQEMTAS
Test: IRAK4 MSD Degradation in OCI-LY10
Format: cell-based
Conditions: OCI-LY10 cells, MSD
Method in brief: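 OCI-LY10 cells exposed to 8-point 1:3 compound series (top 1 to 10 μM) for 4 to 24 h at 37 °C, 5% CO2. Lysate IRAK4 quantified by MSD sandwich immunoassay. DC50 from three-parameter logistic fit, binned A (<0.01 μM) to D (>0.2 μM or not tested).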

[1] = 4 hrs incubation, read-out: IRAK4 degradation in OCI-LY10 at 4 hrs: DC50
[2] = 24 hrs incubation, read-out: IRAK4 degradation in OCI-LY10 at 24 hrs: DC50

Row | SMILES | DC50 [1] [nM] | DC50 [2] [nM]
1 | Cn1c(=O)n(C2CCC(=O)NC2=O)c2cccc(C3CCN(C[C@H]4CC[C@H](n5cc6cc(NC(=O)c7cccc(C(F)(F)F)n7)c(C(F)F)cc6n5)CC4)CC3(F)F)c21 (some centres unmarked) [I-443] | > 200 | > 200
2 | Cn1c(=O)n(C2CCC(=O)NC2=O)c2cccc(C3CCN(C[C@H]4CC[C@H](n5cc6cc(NC(=O)c7cccc(C(F)(F)F)n7)c(C#N)cc6n5)CC4)CC3(F)F)c21 (some centres unmarked) [I-444] | > 200 | > 200
3 | Cn1c(=O)n(C2CCC(=O)NC2=O)c2cccc(C3CCN(C[C@H]4CC[C@H](n5cc6cc(NC(=O)c7cccc(C(F)(F)F)n7)ccc6n5)CC4)CC3(F)F)c21 (some centres unmarked) [I-445] | > 200 | > 200
4 | COc1ccc2c(c1C1CCN(C[C@H]3CC[C@H](n4cc5cc(NC(=O)c6cccc(C(F)(F)F)n6)ccc5n4)CC3)CC1(F)F)n(C)c(=O)n2C1CCC(=O)NC1=O (some centres unmarked) [I-446] | > 200 | > 200
5 | Cn1c(=O)n(C2CCC(=O)NC2=O)c2cccc(C3CCN(C[C@H]4CC[C@H](n5cc6cc(NC(=O)c7cccc(C(F)(F)F)n7)ncc6n5)CC4)CC3(F)F)c21 (some centres unmarked) [I-447] | > 200 | < 10
6 | COc1ccc2c(c1C1CCN(C[C@H]3CC[C@H](n4cc5cc(NC(=O)c6cccc(C(F)(F)F)n6)ncc5n4)CC3)CC1(F)F)n(C)c(=O)n2C1CCC(=O)NC1=O (some centres unmarked) [I-448] | > 200 | > 200
7 | Cn1c(=O)n(C2CCC(=O)NC2=O)c2cccc(C3CCN(C[C@H]4CC[C@H](n5cc6cc(NC(=O)c7cccc(C(F)(F)F)n7)c(F)cc6n5)CC4)CC3(F)F)c21 (some centres unmarked) [I-449] | > 200 | > 200
8 | Cn1c(=O)n(C2CCC(=O)NC2=O)c2cccc(C3CCN(C[C@H]4CC[C@H](n5cc6cc(NC(=O)c7cccc(C(F)(F)F)n7)c(Cl)cc6n5)CC4)CC3(F)F)c21 (some centres unmarked) [I-450] | > 200 | > 200
9 | COc1cc2nn([C@H]3CC[C@H](CN4CCC(c5cccc6c5n(C)c(=O)n6C5CCC(=O)NC5=O)C(F)(F)C4)CC3)cc2cc1NC(=O)c1cccc(C(F)(F)F)n1 (some centres unmarked) [I-451] | > 200 | > 200
10 | Cc1cc2nn([C@H]3CC[C@H](CN4CCC(c5cccc6c5n(C)c(=O)n6C5CCC(=O)NC5=O)C(F)(F)C4)CC3)cc2cc1NC(=O)c1cccc(C(F)(F)F)n1 (some centres unmarked) [I-452] | > 200 | > 200
11 | COc1ccc2c(c1N1CCC(N(C)C[C@H]3CC[C@H](n4cc(NC(=O)c5cnn6cccnc56)c(C(F)F)n4)CC3)C(F)(F)C1)n(C)c(=O)n2C1CCC(=O)NC1=O (some centres unmarked) [I-453] | > 200 | > 200
12 | Cn1c(=O)n(C2CCC(=O)NC2=O)c2cccc(C3=CCN(C[C@H]4CC[C@H](n5cc6cc(NC(=O)c7cccc(C(F)(F)F)n7)ccc6n5)CC4)CC3(F)F)c21 (some centres unmarked) [I-454] | > 200 | > 200
13 | Cn1c(=O)n(C2CCC(=O)NC2=O)c2cccc(C3=CCN(C[C@H]4CC[C@H](n5cc6cc(NC(=O)c7cccc(C(F)(F)F)n7)c(C#N)cc6n5)CC4)CC3(F)F)c21 (some centres unmarked) [I-455] | > 200 | > 200
14 | Cn1c(=O)n(C2CCC(=O)NC2=O)c2cccc(C3=CCN(C[C@H]4CC[C@H](n5cc6cc(NC(=O)c7cccc(C(F)(F)F)n7)c(C(F)F)cc6n5)CC4)CC3(F)F)c21 (some centres unmarked) [I-456] | > 200 | > 200
15 | Cn1c(=O)n(C2CCC(=O)NC2=O)c2cccc(C3=CCN(C[C@H]4CC[C@H](n5cc6cc(NC(=O)c7cccc(C(F)(F)F)n7)ccc6n5)CC4)CC3F)c21 (some centres unmarked) [I-457] | > 200 | > 200
16 | Cn1c(=O)n(C2CCC(=O)NC2=O)c2cccc(C3=CCN(C[C@H]4CC[C@H](n5cc6cc(NC(=O)c7cccc(C(F)(F)F)n7)c(C#N)cc6n5)CC4)CC3F)c21 (some centres unmarked) [I-458] | > 200 | > 200
17 | Cn1c(=O)n(C2CCC(=O)NC2=O)c2cccc(C3=CCN(C[C@H]4CC[C@H](n5cc6cc(NC(=O)c7cccc(C(F)(F)F)n7)c(C(F)F)cc6n5)CC4)CC3F)c21 (some centres unmarked) [I-459] | > 200 | > 200
18 | Cn1c(=O)n(C2CCC(=O)NC2=O)c2cccc(C3CCN(C[C@H]4CC[C@H](n5cc6cc(NC(=O)c7cccc(C(F)(F)F)n7)ccc6n5)CC4)CC3O)c21 (some centres unmarked) [I-460] | > 200 | > 200
19 | Cn1c(=O)n(C2CCC(=O)NC2=O)c2cccc(C3CCN(C[C@]4(O)CC[C@@H](n5cc6cc(NC(=O)c7cccc(C(F)(F)F)n7)ccc6n5)CC4)CC3)c21 (some centres unmarked) [I-461] | > 200 | > 200
20 | COc1cc2nn([C@H]3CC[C@H](CN4CC=C(c5ccc6c(c5)n(C)c(=O)n6C5CCC(=O)NC5=O)C(F)(F)C4)CC3)cc2cc1NC(=O)c1cccc(C(F)(F)F)n1 (some centres unmarked) [I-462] | > 200 | > 200

The next lines start with the values.

Row | DC50 [1] [nM] | DC50 [2] [nM] | SMILES
21 | > 200 | > 200 | COc1cc2nn([C@H]3CC[C@H](CN4CCC(c5ccc6c(c5)n(C)c(=O)n6C5CCC(=O)NC5=O)C(F)(F)C4)CC3)cc2cc1NC(=O)c1cccc(C(F)(F)F)n1 (some centres unmarked) [I-463]
22 | > 200 | > 200 | Cn1c(=O)n(C2CCC(=O)NC2=O)c2ccc(C3=CCN(C[C@H]4CC[C@H](n5cc6cc(NC(=O)c7cccc(C(F)(F)F)n7)ccc6n5)CC4)CC3(F)F)cc21 (some centres unmarked) [I-464]
23 | > 200 | > 200 | Cn1c(=O)n(C2CCC(=O)NC2=O)c2ccc(C3CCN(C[C@H]4CC[C@H](n5cc6cc(NC(=O)c7cccc(C(F)(F)F)n7)ccc6n5)CC4)CC3(F)F)cc21 (some centres unmarked) [I-465]
24 | > 200 | > 200 | COc1cc2nn([C@H]3CC[C@H](CN4CC=C(c5cccc6c(N7CCC(=O)NC7=O)cncc56)C(F)(F)C4)CC3)cc2cc1NC(=O)c1cccc(C(F)(F)F)n1 [I-466]
25 | > 200 | > 200 | COc1cc2nn([C@H]3CC[C@H](CN4CCC(c5cccc6c(N7CCC(=O)NC7=O)cncc56)C(F)(F)C4)CC3)cc2cc1NC(=O)c1cccc(C(F)(F)F)n1 (some centres unmarked) [I-467]
26 | > 200 | > 200 | O=C1CCN(c2cncc3c(C4=CCN(C[C@H]5CC[C@H](n6cc7cc(NC(=O)c8cccc(C(F)(F)F)n8)ccc7n6)CC5)CC4(F)F)cccc23)C(=O)N1 [I-468]
27 | > 200 | > 200 | O=C1CCN(c2cncc3c(C4CCN(C[C@H]5CC[C@H](n6cc7cc(NC(=O)c8cccc(C(F)(F)F)n8)ccc7n6)CC5)CC4(F)F)cccc23)C(=O)N1 (some centres unmarked) [I-469]
28 | > 200 | > 200 | COc1cc2nn([C@H]3CC[C@H](CN4CC=C(c5ccc6c(N7CCC(=O)NC7=O)cncc6c5)C(F)(F)C4)CC3)cc2cc1NC(=O)c1cccc(C(F)(F)F)n1 [I-470]
29 | > 200 | > 200 | COc1cc2nn([C@H]3CC[C@H](CN4CCC(c5ccc6c(N7CCC(=O)NC7=O)cncc6c5)C(F)(F)C4)CC3)cc2cc1NC(=O)c1cccc(C(F)(F)F)n1 (some centres unmarked) [I-471]
30 | > 200 | > 200 | O=C1CCN(c2cncc3cc(C4=CCN(C[C@H]5CC[C@H](n6cc7cc(NC(=O)c8cccc(C(F)(F)F)n8)ccc7n6)CC5)CC4(F)F)ccc23)C(=O)N1 [I-472]
31 | > 200 | > 200 | O=C1CCN(c2cncc3cc(C4CCN(C[C@H]5CC[C@H](n6cc7cc(NC(=O)c8cccc(C(F)(F)F)n8)ccc7n6)CC5)CC4(F)F)ccc23)C(=O)N1 (some centres unmarked) [I-473]
32 | > 200 | > 200 | CN(C[C@H]1CC[C@H](n2cc3cc(NC(=O)c4cccc(C(F)(F)F)n4)ccc3n2)CC1)C1CCN(c2cccc3c2n(C)c(=O)n3C2CCC(=O)NC2=O)CC1(F)F (some centres unmarked) [I-474]
33 | > 200 | > 200 | COc1cc2nn([C@H]3CC[C@H](CN(C)C4CCN(c5cccc6c5n(C)c(=O)n6C5CCC(=O)NC5=O)CC4(F)F)CC3)cc2cc1NC(=O)c1cccc(C(F)(F)F)n1 (some centres unmarked) [I-475]
34 | > 200 | > 200 | CN(C[C@H]1CC[C@H](n2cc3cc(NC(=O)c4cccc(C(F)(F)F)n4)c(C(F)F)cc3n2)CC1)C1CCN(c2cccc3c2n(C)c(=O)n3C2CCC(=O)NC2=O)CC1(F)F (some centres unmarked) [I-476]
35 | > 200 | > 200 | CN(C[C@H]1CC[C@H](n2cc3cc(NC(=O)c4cccc(C(F)(F)F)n4)c(C#N)cc3n2)CC1)C1CCN(c2cccc3c2n(C)c(=O)n3C2CCC(=O)NC2=O)CC1(F)F (some centres unmarked) [I-477]
36 | > 200 | > 200 | CN(C[C@H]1CC[C@H](n2cc3cc(NC(=O)c4cccc(C(F)(F)F)n4)c([S+](C)[O-])cc3n2)CC1)C1CCN(c2cccc3c2n(C)c(=O)n3C2CCC(=O)NC2=O)CC1(F)F (some centres unmarked) [I-478]
37 | > 200 | > 200 | CN(C[C@H]1CC[C@H](n2cc3cc(NC(=O)c4cccc(C(F)(F)F)n4)c(S(C)(=O)=O)cc3n2)CC1)C1CCN(c2cccc3c2n(C)c(=O)n3C2CCC(=O)NC2=O)CC1(F)F (some centres unmarked) [I-479]
38 | > 200 | > 200 | CN(C[C@H]1CC[C@H](n2cc3cc(NC(=O)c4cccc(C(F)(F)F)n4)c(S(C)(=N)=O)cc3n2)CC1)C1CCN(c2cccc3c2n(C)c(=O)n3C2CCC(=O)NC2=O)CC1(F)F (some centres unmarked) [I-480]
39 | > 200 | > 200 | CN(C[C@H]1CC[C@H](n2cc(NC(=O)c3cnn4cccnc34)c(C(F)F)n2)CC1)C1CCN(c2ccc3c(c2)n(C)c(=O)n3C2CCC(=O)NC2=O)CC1(F)F (some centres unmarked) [I-481]
40 | > 200 | > 200 | CN(C[C@H]1CC[C@H](n2cc(NC(=O)c3cnn4cccnc34)c(C(F)F)n2)CC1)C1CCN(c2cccc3c2n(C)c(=O)n3C2CCC(=O)NC2=O)CC1F (some centres unmarked) [I-482]
